Measured values published in patent US12173018B2, “Penicillin-binding protein inhibitors” (priority 2018, dated 2024).
pEC50: −log10 of the molar value. In brackets after ≈: the same amount, converted by molar mass. Like-named read-outs stand apart in the source and are kept apart here.

Assays:
E. coli PBP3 = E. coli PBP3 (Escherichia coli (strain K12), UniProt P0AD68); test: E. coli PBP3 Bocillin-FL fluorescence polarization competition binding assay
In short: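 Competition against 0.1 μM Bocillin-FL for binding to 1.5 μM purified protein, read by fluorescence polarization for 60 min. Compounds tested from 0 to 1000 μM; EC50 taken as the concentration reducing probe binding.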

E. coli PBP1a = E. coli PBP1a (Escherichia coli (strain K12), UniProt P02918); test: Radioligand competition binding assay with 14C-labeled boronic acid probe, PBP1a
Sequence of E. coli PBP1a (P02918 whole entry): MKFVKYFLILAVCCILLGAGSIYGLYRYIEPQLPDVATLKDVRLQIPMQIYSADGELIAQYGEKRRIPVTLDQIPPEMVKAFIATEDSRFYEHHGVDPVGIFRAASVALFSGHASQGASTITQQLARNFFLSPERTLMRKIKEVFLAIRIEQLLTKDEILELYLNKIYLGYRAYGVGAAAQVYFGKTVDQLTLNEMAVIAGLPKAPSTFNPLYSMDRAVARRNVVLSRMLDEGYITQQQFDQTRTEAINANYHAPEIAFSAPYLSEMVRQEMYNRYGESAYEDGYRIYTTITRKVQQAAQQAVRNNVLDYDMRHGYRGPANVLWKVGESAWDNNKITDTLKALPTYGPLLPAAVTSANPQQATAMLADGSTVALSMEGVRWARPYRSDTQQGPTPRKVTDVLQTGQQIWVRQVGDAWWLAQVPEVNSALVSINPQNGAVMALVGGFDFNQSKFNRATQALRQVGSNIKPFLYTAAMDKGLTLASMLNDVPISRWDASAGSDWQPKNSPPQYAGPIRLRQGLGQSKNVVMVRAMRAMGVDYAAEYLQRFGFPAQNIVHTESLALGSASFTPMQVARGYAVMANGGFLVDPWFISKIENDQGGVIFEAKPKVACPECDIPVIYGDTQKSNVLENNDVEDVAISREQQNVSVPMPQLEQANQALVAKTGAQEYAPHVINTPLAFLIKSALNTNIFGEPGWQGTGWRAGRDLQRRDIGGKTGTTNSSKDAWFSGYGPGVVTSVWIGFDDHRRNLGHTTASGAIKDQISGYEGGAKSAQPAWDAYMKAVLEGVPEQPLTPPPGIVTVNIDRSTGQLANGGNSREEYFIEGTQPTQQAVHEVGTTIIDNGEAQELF
Excerpt: To determine the ability of boronic acid-based test PBP inhibitors to bind Penicillin Binding Proteins (PBPs), a radio-labelled boronic acid PBP inhibitor
[drawing 751] was used in competition binding assays to determine boronic acid PBP inhibitor binding to PBP1a or PBP1b from Escherichia coli. PBP1a and PBP1b were purified as described previously (Bertsche, U.; et al., J. Biol. Chem. 2005, 280 (45), 38096-38101; Born, P.; et al., J. Biol. Chem. 2006. 281 (37), 26985-26993). To establish assay conditions for competition binding, an enzyme titration/saturation binding experiment was performed. Saturation binding was performed in a buffer comprised of 20 mM Tris (pH 7.5), 500 mM NaCl and 0.1% (v/v) TritonX-100, with PBP1a/PBP1b at a final concentration of 0.1 μM and Compound A at final concentrations ranging from 0-100 μM. Mixtures were incubated for 60 minutes, then applied to Zeba Spin Desalting columns or plates (ThermoFisher Scientific) and centrifuged at 1000-1500×g for 2 minutes. The flow through, containing PBP bound with Compound A, was recovered and 100 μL mixed with 5 mL of UltimaGold liquid scintillation cocktail (Perkin Elmer), and the radioactivity counted using a Beckman Coulter LS 6500 Multipurpose scintillation counter. PBP binding of Compound A approached saturation at 20 μM of ^14C-labeled probe. The competition binding assay was validated using the beta-lactam ampicillin, with Compound A at a final concentration of 20 μM, PBP1a/PBP1b at a final concentration of 0.1 μM. PBP1a/PBP1b was incubated with ampicillin in a 96-well microplate for 60 minutes, then Compound A was added and the mixtures incubated for an additional 60 minutes. The mixtures were then applied to Zeba Spin desalting plates and centrifuged at 1000×g for 2 minutes. The flow through was recovered and 100 μl mixed with 5 ml of UltimaGold liquid scintillation cocktail and the radioactivity counted. […] Binding assays with boronic acid PBP inhibitors were performed in an identical fashion. The potency of boronic acid PBP inhibitors was reported as the EC50 value.

[1] = test system: engineered strain of Escherichia coli harboring CTX-M15; test: microbe, parasite or virus in culture; assay type: cell-based; conditions: Escherichia coli, read-out: Microbiological Activity (MIC in mg/L), E. coli DH5α/pLBII-CTX-M15, engineered strain producing CTX-M15
E. coli ATCC 25922 = test: Broth microdilution MIC, E. coli ATCC 25922; assay type: cell-based; conditions: Escherichia coli, ATCC25922; E. coli ATCC 25922, broth microdilution; read-out: MIC E. coli 25922
In short: (§1)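 Strains are tested by standard CLSI broth microdilution. Log-phase cells, diluted by OD600 to 5×10^5 CFU/mL, meet 2-fold compound series and incubate 16-20 hours at 37° C before the lowest growth-free concentration is recorded.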

E. coli AG100 = test: Broth microdilution MIC, E. coli AG100 (wild-type parent); assay type: cell-based; conditions: Escherichia coli; wild-type parent E. coli AG100, broth microdilution; read-out: MIC E. coli AG100
In short: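 Starting inoculum of 5×10^5 CFU/mL, from colonies grown 3-5 h in Mueller-Hinton broth with divalent cations, added to two-fold compound dilution series.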

E. coli 901C = test: microbe, parasite or virus in culture; assay type: cell-based; conditions: Escherichia coli; hyper-permeable E. coli 901C, broth microdilution; read-out: MIC E. coli 901C
In short: as §1

E. coli AG100A = test: microbe, parasite or virus in culture; assay type: cell-based; conditions: Escherichia coli, read-out: MIC E. coli AG100A
In short: as §1

K. pneumoniae UMM = test: microbe, parasite or virus in culture; assay type: cell-based; conditions: Klebsiella pneumoniae; K. pneumoniae UMM producing SHV-5 and KPC-2; read-out: MIC K. pneumoniae UMM
In short: as §1

E. coli D22 = test: microbe, parasite or virus in culture; assay type: cell-based; conditions: Escherichia coli; hyper-permeable E. coli D22, broth microdilution; read-out: MIC E. coli D22
In short: as §1

K. pneumoniae SI-117 = test: microbe, parasite or virus in culture; assay type: cell-based; conditions: Klebsiella pneumoniae, SI117, read-out: MIC K. pneumoniae SI-117
In short: as §1

K. pneumoniae 848844 = test: microbe, parasite or virus in culture; assay type: cell-based, Klebsiella pneumoniae; conditions: Klebsiella pneumoniae; K. pneumoniae 848844 producing SHV-11 and KPC-2; read-out: MIC K. pneumoniae 848844
In short: as §1

E. coli PBP2 = E. coli PBP2 (Escherichia coli (strain K12), UniProt P0AD65); test: E. coli PBP2 Bocillin-FL fluorescence polarization competition binding assay; conditions: fluorescence polarization competition binding with Bocillin-FL; read-out: E. coli K12 PBP2 Potency (EC50)
Sequence of E. coli PBP2 (P0AD65 whole entry): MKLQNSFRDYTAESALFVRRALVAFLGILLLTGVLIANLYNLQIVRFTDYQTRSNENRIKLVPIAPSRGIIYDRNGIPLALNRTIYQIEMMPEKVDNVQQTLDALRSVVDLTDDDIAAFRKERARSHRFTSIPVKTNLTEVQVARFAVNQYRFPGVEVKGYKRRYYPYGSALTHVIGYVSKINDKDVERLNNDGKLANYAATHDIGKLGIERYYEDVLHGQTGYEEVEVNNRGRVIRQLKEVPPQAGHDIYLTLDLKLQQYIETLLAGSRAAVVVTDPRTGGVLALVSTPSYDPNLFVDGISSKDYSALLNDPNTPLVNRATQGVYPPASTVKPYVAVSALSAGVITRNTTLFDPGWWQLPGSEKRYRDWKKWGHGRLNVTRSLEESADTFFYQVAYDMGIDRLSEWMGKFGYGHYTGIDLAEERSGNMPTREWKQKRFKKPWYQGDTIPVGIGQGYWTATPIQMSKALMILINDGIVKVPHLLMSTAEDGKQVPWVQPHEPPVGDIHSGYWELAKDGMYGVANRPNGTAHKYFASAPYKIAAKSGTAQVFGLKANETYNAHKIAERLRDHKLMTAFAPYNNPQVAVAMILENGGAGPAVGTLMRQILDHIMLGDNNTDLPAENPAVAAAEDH
Excerpt: To determine the ability of boronic acid-based test PBP inhibitors to bind Penicillin Binding Proteins (PBPs), Bocillin-FL (fluorescently-labeled penicillin V; ThermoFisher Scientific) was used in a fluorescence polarization (FP) competition binding assay to assess inhibitor binding to PBP2, PBP3 or PBP4 from Escherichia coli. PBPs were cloned and purified as described previously (King, D. T, et al., ACS Infectious Diseases 2015, 1, 175-184). To establish assay conditions for competition binding, an enzyme titration/saturation binding experiment was initially performed. Bocillin-FL was prepared at 0.2 μM in a buffer comprised of 50 mM Hepes (pH 8.0), 300 mM NaCl and 5% (v/v) glycerol. Saturation binding was performed by mixing 40 μl of PBP solutions ranging in concentrations from 0-12 μM with 40 μl of the 0.2 μM Bocillin-FL solution, in individual wells of a black 384-well microplate. FP was measured immediately upon mixing (Excitation, 490 nm; Emission, 520 nm; g-factor, 0.96), using a Cytation3 (BioTek) microplate reader and measured continuously for up to 120 minutes. […] For all PBPs the FP signal approached saturation with 1.5 μM PBP (final concentration). […] Assays (80 μl final volume) were performed with PBPs at a final concentration of 1.5 μM, Bocillin-FL at 0.1 μM and beta-lactam concentrations that ranged from 0-1000 μM. […] Bocillin-FL was added and the FP immediately measured for 60 minutes (90 minutes for PBP2). The beta-lactam potency was reported as the concentration of beta-lactam required to reduce binding of Bocillin-FL by […] (EC50). […] Binding assays for boronic acid PBP inhibitors were performed in an identical fashion.

[2] = test system: P. aeruginosa (ΔmexAB-oprM); test: microbe, parasite or virus in culture; assay type: cell-based; conditions: Pseudomonas aeruginosa, read-out: MIC P. aeruginosa ΔmexAB-OprM
In short: as §1

P. aeruginosa ATCC 35151 = test: microbe, parasite or virus in culture; assay type: cell-based; conditions: Pseudomonas aeruginosa, ATCC35151; hyper-permeable P. aeruginosa ATCC 35151; read-out: MIC P. aeruginosa ATCC 35151
In short: as §1

P. aeruginosa PAO1 = test: Broth microdilution MIC, P. aeruginosa PAO1; assay type: cell-based; conditions: Pseudomonas aeruginosa; P. aeruginosa PAO1, broth microdilution; read-out: MIC P. aeruginosa PAO1
Method: (§2) To determine the ability of test compounds to potentiate the inhibition of the growth of bacterial strains, classic cell based broth microdilution minimum inhibitory concentration (MIC) assays were employed. MIC assays are performed according to CLSI methods except where otherwise noted (CLSI, 2011 and CLSI, 2009). The reference type strain E. coli ATCC 25922, the wild-type parent strain E. coli AG100, the hyper-permeable E. coli 901C and E. coli D22 and the E. coli AG100A strain lacking the acrAB efflux pump encoding genes were used to determine the ability of the PBP inhibitors to penetrate the outer membrane of gram-negative bacteria and inhibit bacterial growth. […] The P. aeruginosa PAO1, P. aeruginosa ATCC 27853 and A. baumannii ATCC 19606, along with the hyper-permeable P. aeruginosa ATCC 35151 and an engineered efflux pump-compromised strain of P. aeruginosa (ΔmexAB-oprM) were used to determine the ability of PBP inhibitors to penetrate the outer membrane of P. aeruginosa and A. baumannii and assess antibacterial activity against these important gram-negative organisms.
(§3) Briefly, cryo-preserved bacterial cultures of challenge strains are streaked for isolation on appropriate agar medium, in this case Mueller Hinton II agar. Following incubation to allow growth of the colonies, plates are sealed with parafilm and stored refrigerated for up to two weeks. For preparation of assay inoculum and to ensure low variability, at least 5 colonies are picked from the agar plates with an inoculating loop and aseptically transferred to a culture tube containing 3 mL of Mueller-Hinton Broth (supplemented with divalent cations to required levels based on Manufacturers' certification). The broth culture is grown for 3-5 hours at 37° C. with shaking at 200 rpm. Meanwhile, 2-fold serial dilutions of test compounds are conducted in a 96 well plate with a final volume of 75 μL per well at 2-fold the final desired concentration. After the dilution plates are set up the growing cultures are then diluted in a cuvette containing MH II broth and the optical density is measured at 600 nm. The Inoculum is diluted such that 75 μL of this culture in Mueller-Hinton Broth results in a starting bacterial concentration of 5×10^5 CFU/mL when added to the dilution plates. The plates are incubated for 16-20 hours at 37° C. The MIC values are read visually as the lowest concentration well with no bacterial growth.

A. baumannii ATCC 19606 = test: Broth microdilution MIC, A. baumannii ATCC 19606; assay type: cell-based; conditions: Acinetobacter baumannii, ATCC19606; A. baumannii ATCC 19606, broth microdilution; read-out: MIC A. baumannii ATCC 19606
Method: as §2, §3

Sequence of E. coli PBP3 (P0AD68 whole entry): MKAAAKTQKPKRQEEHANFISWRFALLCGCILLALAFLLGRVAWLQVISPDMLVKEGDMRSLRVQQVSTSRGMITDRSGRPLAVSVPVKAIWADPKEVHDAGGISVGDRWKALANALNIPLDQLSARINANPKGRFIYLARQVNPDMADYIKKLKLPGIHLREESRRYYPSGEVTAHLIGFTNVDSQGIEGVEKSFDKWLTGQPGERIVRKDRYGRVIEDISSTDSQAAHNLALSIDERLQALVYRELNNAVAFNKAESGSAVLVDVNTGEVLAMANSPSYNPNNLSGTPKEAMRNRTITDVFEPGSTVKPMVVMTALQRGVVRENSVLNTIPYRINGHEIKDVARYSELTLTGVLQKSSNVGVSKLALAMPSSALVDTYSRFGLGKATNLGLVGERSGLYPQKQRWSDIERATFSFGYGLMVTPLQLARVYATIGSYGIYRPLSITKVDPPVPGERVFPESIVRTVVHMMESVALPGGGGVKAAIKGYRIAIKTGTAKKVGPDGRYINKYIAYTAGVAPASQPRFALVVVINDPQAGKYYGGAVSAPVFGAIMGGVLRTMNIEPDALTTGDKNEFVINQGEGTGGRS

SMILES | pEC50 (E. coli PBP3) | pEC50 (E. coli PBP1a) | MIC [1] [mg/L] | MIC (E. coli ATCC 25922) [µg/mL] | MIC (E. coli AG100) [µg/mL] | MIC (E. coli 901C) [µg/mL] | MIC (E. coli AG100A) [µg/mL] | MIC (K. pneumoniae UMM) [µg/mL] | other results
CCN1CCN(C(=O)NC(C(=O)N[C@H]2Cc3cccc(C(=O)O)c3OB2O)C(O)c2ccc(O)c(O)c2)C(=O)C1=O (stereo partly drawn) [Example 46, (3R)-3-(3-(3,4-dihydroxyphenyl)-2-(4-ethyl-2,3-dioxopiperazine-1-carboxamido)-3-hydroxypropanamido)-2-hydroxy-3,4-dihydro-2H-benzo[e][1,2]oxaborinine-8-carboxylic acid] | 3.30 to 4.52 | > 5.00 |  |  |  |  |  |  | 
CCN1CCN(C(=O)NC(C(=O)N[C@H]2Cc3cccc(C(=O)O)c3OB2O)c2ccc(OCCF)cc2)C(=O)C1=O (stereo partly drawn) [Example 76, (3R)-3-(2-(4-ethyl-2,3-dioxopiperazine-1-carboxamido)-2-(4-(2-fluoroethoxy)phenyl)acetamido)-2-hydroxy-3,4-dihydro-2H-benzo[e][1,2]oxaborinine-8-carboxylic acid] | 3.30 to 4.52 | > 5.00 | 128 to 256 (≈ 224 to 449 µM) |  |  |  |  |  | 
CCN1CCN(C(=O)NC(C(=O)N[C@H]2Cc3cccc(C(=O)O)c3OB2O)c2ccc(O)nc2F)C(=O)C1=O (stereo partly drawn) [Example 86, (3R)-3-(2-(4-ethyl-2,3-dioxopiperazine-1-carboxamido)-2-(2-fluoro-6-hydroxypyridin-3-yl)acetamido)-2-hydroxy-3,4-dihydro-2H-benzo[e][1,2]oxaborinine-8-carboxylic acid] | 3.30 to 4.52 | > 5.00 | 128 to 256 (≈ 236 to 471 µM) |  |  |  |  |  | 
O=C(O)c1cccc2c1OB(O)[C@@H](NC(=O)C(NC(=O)N1CCN(CCF)C(=O)C1=O)c1ccc(O)cn1)C2 (stereo partly drawn) [Example 99, (3R)-3-(2-(4-(2-fluoroethyl)-2,3-dioxopiperazine-1-carboxamido)-2-(5-hydroxypyridin-2-yl)acetamido)-2-hydroxy-3,4-dihydro-2H-benzo[e][1,2]oxaborinine-8-carboxylic acid] |  | 4.00 to 5.00 | 32 to 64 (≈ 58.9 to 118 µM) | 32 to 64 | 32 to 64 | < 0.25 | 2 to 4 | 8 to 16 | pEC50 (E. coli PBP3; fluorescence polarization competition binding with Bocillin-FL, read-out: E. coli K12 PBP3 Potency): > 4.52
Nc1ncc(C(NC(=O)N2CCN(CCF)C(=O)C2=O)C(=O)N[C@H]2Cc3cccc(C(=O)O)c3OB2O)s1 (stereo partly drawn) [Example 100, (3R)-3-(2-(2-aminothiazol-5-yl)-2-(4-(2-fluoroethyl)-2,3-dioxopiperazine-1-carboxamido)acetamido)-2-hydroxy-3,4-dihydro-2H-benzo[e][1,2]oxaborinine-8-carboxylic acid] | 3.30 to 4.52 | 4.00 to 5.00 | 8 to 16 (≈ 14.6 to 29.2 µM) | 32 to 64 | 32 to 64 | 0.5 to 1 | 2 to 4 | 8 to 16 | MIC (E. coli D22): 8 to 16 µg/mL; MIC (K. pneumoniae SI-117): 8 to 16 µg/mL; MIC (K. pneumoniae 848844): 32 to 64 µg/mL
CCN1CCN(C(=O)N[C@@H](C(=O)N[C@H]2Cc3ccc(F)c(C(=O)O)c3OB2O)c2ccsc2)C(=O)C1=O [Example 138, (R)-3-((R)-2-(4-ethyl-2,3-dioxopiperazine-1-carboxamido)-2-(thiophen-3-yl)acetamido)-7-fluoro-2-hydroxy-3,4-dihydro-2H-benzo[e][1,2]oxaborinine-8-carboxylic acid] | > 4.52 |  |  |  |  |  |  |  | pEC50 (E. coli PBP2): < 3.30; MIC [2]: 32 to 64 µg/mL; MIC (P. aeruginosa ATCC 35151): 0.5 to 1 µg/mL; MIC (P. aeruginosa PAO1): > 128 µg/mL; MIC (A. baumannii ATCC 19606): > 128 µg/mL
